Assay results: the NIST ThermoML archive (doi:10.1021/je3011634)
Numbers after ± are expanded uncertainties.

Conditions: 101.33 kPa, Liquid; for viscosity: Capillary tube (Ostwald / Ubbelohde) method; for mass density: Vibrating tube method

| viscosity (293.15 K) | mass density (293.15 K) | viscosity (303.15 K) | mass density (303.15 K) | viscosity (313.15 K) | mass density (313.15 K) | viscosity (323.15 K) | mass density (323.15 K) | viscosity (333.15 K) | mass density (333.15 K) | SMILES |
| --- | --- | --- | --- | --- | --- | --- | --- | --- | --- | --- |
| 4.087 ± 0.1 mPa·s | 801.82 ± 0.24 kg/m3 | 2.877 ± 0.1 mPa·s | 794.06 ± 0.24 kg/m3 | 2.091 ± 0.1 mPa·s | 786.12 ± 0.24 kg/m3 | 1.576 ± 0.1 mPa·s | 777.94 ± 0.24 kg/m3 | 1.125 ± 0.1 mPa·s | 769.46 ± 0.24 kg/m3 | CC(C)CO [2-methyl-1-propanol] |
| 40.46 ± 0.27 mPa·s | 987.65 ± 0.23 kg/m3 | 23.98 ± 0.18 mPa·s | 979.65 ± 0.23 kg/m3 | 15.31 ± 0.14 mPa·s | 971.61 ± 0.23 kg/m3 | 10.22 ± 0.12 mPa·s | 963.52 ± 0.23 kg/m3 | 6.962 ± 0.11 mPa·s | 955.38 ± 0.23 kg/m3 | NCCCO [3-amino-1-propanol] |
| 2.204 ± 0.1 mPa·s | 803.57 ± 0.15 kg/m3 | 1.513 ± 0.1 mPa·s | 795.53 ± 0.15 kg/m3 | 1.018 ± 0.1 mPa·s | 787.35 ± 0.15 kg/m3 | 0.79 ± 0.1 mPa·s | 778.98 ± 0.15 kg/m3 | – | 770.38 ± 0.16 kg/m3 | CCCO [propan-1-ol] |
| 2.362 ± 0.1 mPa·s | 785.35 ± 0.17 kg/m3 | 1.762 ± 0.1 mPa·s | 776.86 ± 0.17 kg/m3 | 1.2 ± 0.1 mPa·s | 768.07 ± 0.17 kg/m3 | 0.938 ± 0.1 mPa·s | 758.89 ± 0.18 kg/m3 | 0.604 ± 0.1 mPa·s | 749.25 ± 0.18 kg/m3 | CC(C)O [propan-2-ol] |
